Results: publication PMC11558128 (Advanced Science, 2024)
Positions of bridges follow the written chain, without caps; N, C: chain ends. Residues, ends and D or L forms follow the SMILES beside them.

Legend:
hNav1.7 = target: T1, hNav1.7 (Homo sapiens, UniProt Q15858); assay: cell-based; details: whole-cell patch clamp, HEK293T; mean ± SEM, this study; SEM; read-out: IC50 on hNav1.7
T1 construct: expressed in transfected cells; host or cells: HEK293T

rKv4.2 = target: T2, rKv4.2 (Rattus norvegicus, UniProt Q63881); assay: cell-based; details: SEM; for IC50: whole-cell patch clamp, HEK293T, mean ± SEM, n = 3-8, read-out: IC50 on rKv4.2 WT
T2 construct: expressed in transfected cells; host or cells: HEK293T
T2 sequence (Q63881 1-630): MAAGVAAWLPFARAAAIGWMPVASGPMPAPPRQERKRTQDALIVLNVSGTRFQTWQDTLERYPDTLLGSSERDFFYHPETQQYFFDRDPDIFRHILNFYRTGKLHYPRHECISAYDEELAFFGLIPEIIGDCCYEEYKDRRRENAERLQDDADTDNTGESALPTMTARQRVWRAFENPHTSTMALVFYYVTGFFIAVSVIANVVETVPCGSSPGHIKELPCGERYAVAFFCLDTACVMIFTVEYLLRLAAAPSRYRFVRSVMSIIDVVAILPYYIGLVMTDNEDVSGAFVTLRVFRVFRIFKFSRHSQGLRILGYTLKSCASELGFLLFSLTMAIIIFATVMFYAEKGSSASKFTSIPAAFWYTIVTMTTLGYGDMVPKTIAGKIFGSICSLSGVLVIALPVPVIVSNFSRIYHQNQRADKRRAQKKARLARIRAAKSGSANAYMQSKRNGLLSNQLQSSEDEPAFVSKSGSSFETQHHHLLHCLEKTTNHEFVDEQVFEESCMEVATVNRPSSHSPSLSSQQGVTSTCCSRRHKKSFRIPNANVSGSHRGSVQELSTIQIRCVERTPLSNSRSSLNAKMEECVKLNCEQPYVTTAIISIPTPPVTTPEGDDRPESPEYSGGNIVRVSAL

[1] = test system: other Kv channels (hKv1.1-1.5, rKv2.1, hKv3.1-3.4, mKv4.1, hKv7.2 and hERG)
rKv4.3 = target: T3, rKv4.3 (Rattus norvegicus, UniProt Q62897); assay: cell-based
T3 construct: expressed in transfected cells; host or cells: HEK293T
T3 sequence (Q62897 1-655): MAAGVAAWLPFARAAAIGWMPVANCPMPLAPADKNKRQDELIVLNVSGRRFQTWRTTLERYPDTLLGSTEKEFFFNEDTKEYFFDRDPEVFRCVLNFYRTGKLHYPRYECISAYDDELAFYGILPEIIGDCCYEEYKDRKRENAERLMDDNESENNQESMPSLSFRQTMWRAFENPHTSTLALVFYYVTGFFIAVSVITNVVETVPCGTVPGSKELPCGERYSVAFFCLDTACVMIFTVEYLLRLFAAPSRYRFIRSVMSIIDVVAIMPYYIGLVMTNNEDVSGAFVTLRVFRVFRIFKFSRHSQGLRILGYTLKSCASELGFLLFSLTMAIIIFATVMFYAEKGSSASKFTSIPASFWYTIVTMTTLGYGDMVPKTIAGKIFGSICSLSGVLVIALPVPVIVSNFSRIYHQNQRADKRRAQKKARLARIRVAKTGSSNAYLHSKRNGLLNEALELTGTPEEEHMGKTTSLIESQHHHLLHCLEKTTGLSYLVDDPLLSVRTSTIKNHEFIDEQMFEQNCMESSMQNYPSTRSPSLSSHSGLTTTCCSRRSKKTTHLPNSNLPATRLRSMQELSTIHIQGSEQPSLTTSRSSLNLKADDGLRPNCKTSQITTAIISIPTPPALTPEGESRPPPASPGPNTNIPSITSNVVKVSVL

[2] = test system: acutely isolated rat cardiomyocytes; details: 3 mM, n = 6
[3] = same toxin concentrations (footnote b160), mean ± S.E.M., SEM

T1 sequence (O60939 30-215): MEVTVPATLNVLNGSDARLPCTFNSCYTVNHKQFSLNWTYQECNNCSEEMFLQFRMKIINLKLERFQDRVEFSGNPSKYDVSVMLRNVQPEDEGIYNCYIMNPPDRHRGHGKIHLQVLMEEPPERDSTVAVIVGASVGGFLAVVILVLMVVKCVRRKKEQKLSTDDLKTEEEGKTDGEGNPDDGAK
T1 sequence (Q15858 other isoform, or with tags, fused parts or gaps): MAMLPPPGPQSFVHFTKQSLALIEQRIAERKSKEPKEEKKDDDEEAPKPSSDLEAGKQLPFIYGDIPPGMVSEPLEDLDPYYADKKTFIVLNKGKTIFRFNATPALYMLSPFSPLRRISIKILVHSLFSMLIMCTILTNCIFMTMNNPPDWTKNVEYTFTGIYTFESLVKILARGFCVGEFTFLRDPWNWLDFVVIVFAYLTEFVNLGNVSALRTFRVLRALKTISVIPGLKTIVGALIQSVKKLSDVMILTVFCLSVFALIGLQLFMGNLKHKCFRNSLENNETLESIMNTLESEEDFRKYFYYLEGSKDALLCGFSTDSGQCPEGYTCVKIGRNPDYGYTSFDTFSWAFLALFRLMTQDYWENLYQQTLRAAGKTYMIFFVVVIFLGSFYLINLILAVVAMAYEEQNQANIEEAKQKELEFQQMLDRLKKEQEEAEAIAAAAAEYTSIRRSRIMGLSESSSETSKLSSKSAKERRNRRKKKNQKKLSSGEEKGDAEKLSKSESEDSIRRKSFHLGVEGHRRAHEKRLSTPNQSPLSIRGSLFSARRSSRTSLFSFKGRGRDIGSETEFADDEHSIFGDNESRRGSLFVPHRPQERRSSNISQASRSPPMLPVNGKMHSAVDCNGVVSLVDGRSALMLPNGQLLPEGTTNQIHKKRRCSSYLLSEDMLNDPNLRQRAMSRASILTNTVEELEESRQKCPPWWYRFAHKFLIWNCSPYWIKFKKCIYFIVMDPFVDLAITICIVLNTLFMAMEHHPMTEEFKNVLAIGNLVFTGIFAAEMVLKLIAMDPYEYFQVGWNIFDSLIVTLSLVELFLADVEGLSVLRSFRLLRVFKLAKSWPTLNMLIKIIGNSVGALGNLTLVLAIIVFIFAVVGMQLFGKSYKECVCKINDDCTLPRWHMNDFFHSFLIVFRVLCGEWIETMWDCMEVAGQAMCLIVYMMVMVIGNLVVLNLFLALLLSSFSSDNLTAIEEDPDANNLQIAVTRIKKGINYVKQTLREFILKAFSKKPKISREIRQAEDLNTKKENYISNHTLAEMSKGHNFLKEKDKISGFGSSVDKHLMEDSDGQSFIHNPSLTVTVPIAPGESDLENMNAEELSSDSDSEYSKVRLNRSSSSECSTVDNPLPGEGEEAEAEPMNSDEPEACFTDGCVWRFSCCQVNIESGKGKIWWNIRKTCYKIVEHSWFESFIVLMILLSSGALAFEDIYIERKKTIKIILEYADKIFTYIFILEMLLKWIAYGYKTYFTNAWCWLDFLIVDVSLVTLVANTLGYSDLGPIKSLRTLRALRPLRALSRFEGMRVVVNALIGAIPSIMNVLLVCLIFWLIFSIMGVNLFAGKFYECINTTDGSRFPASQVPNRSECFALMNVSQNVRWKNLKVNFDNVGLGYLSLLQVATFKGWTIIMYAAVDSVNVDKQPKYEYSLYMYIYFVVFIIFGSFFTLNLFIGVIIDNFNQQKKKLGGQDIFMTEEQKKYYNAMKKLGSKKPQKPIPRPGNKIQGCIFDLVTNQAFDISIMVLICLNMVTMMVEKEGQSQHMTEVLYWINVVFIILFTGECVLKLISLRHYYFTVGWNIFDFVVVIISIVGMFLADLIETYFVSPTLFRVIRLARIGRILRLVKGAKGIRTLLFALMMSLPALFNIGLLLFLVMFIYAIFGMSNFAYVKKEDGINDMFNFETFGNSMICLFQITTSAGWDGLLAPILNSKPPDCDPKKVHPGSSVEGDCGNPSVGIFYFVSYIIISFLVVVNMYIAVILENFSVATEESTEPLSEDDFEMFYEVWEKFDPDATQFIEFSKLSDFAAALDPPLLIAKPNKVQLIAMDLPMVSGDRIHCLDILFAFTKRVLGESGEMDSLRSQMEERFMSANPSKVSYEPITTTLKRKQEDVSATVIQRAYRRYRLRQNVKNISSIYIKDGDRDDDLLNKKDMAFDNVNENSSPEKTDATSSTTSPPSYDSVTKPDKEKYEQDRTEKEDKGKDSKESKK
T1 sequence (Q07699 19-218, further chain): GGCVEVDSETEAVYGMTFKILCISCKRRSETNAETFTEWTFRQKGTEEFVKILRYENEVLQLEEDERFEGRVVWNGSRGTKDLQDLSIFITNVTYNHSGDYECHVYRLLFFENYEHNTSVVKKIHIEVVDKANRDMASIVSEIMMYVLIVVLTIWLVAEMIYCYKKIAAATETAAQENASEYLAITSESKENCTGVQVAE

CC(C)C[C@H](NC(=O)[C@H](Cc1ccc(O)cc1)NC(=O)[C@@H](NC(=O)[C@H](CCCCN)NC(=O)[C@@H]1CSSC[C@@H]2NC(=O)[C@H](CCC(=O)O)NC(=O)[C@H](CC(N)=O)NC(=O)[C@H](CCCCN)NC(=O)CNC(=O)[C@@H]3CCCN3C(=O)[C@H]([C@@H](C)O)NC(=O)[C@@H]3CSSC[C@H](NC(=O)[C@H](C)NC(=O)[C@H](Cc4ccc(O)cc4)NC(=O)[C@H](C)NC(=O)[C@@H]4CCCN4C(=O)[C@H](CSSC[C@H](NC(=O)CN)C(=O)N[C@@H](CCCCN)C(=O)NCC(=O)N[C@@H](Cc4ccccc4)C(=O)NCC(=O)N[C@@H](CC(=O)O)C(=O)N[C@@H](CO)C(=O)N3)NC2=O)C(=O)N[C@@H](CO)C(=O)N[C@@H](CO)C(=O)N[C@@H](CCCCN)C(=O)N[C@@H](Cc2c[nH]cn2)C(=O)N[C@@H](CCCCN)C(=O)N[C@@H](Cc2c[nH]c3ccccc23)C(=O)N1)C(C)C)C(N)=O [N19A] (H-GCKGFGDSCTPGKNECCPAYACSSKHKWCKVYL-NH2; disulfide 2-17, 9-22, 16-29)
IC50 (hNav1.7): 116 ± 9 nM | IC50 (rKv4.2): 64 ± 9 nM

CC[C@H](C)[C@H](NC(=O)[C@H](CCCCN)NC(=O)[C@H](Cc1ccc(O)cc1)NC(=O)[C@H](CCCCN)NC(=O)[C@@H]1CSSC[C@@H]2NC(=O)[C@H](CCC(=O)O)NC(=O)[C@H](CC(=O)O)NC(=O)[C@H](CCCCN)NC(=O)CNC(=O)[C@@H]3CCCN3C(=O)[C@H]([C@@H](C)O)NC(=O)[C@@H]3CSSC[C@H](NC(=O)[C@H](C(C)C)NC(=O)[C@H](Cc4c[nH]cn4)NC(=O)[C@H](CC(N)=O)NC(=O)[C@@H]4CCCN4C(=O)[C@H](CSSC[C@H](NC(=O)[C@H](C)N)C(=O)N[C@@H](CCCCN)C(=O)NCC(=O)N[C@@H]([C@@H](C)CC)C(=O)N[C@@H](Cc4ccccc4)C(=O)N[C@@H](C(C)C)C(=O)N[C@@H]([C@@H](C)O)C(=O)N3)NC2=O)C(=O)N[C@@H](CO)C(=O)N[C@@H](CO)C(=O)N[C@@H](CCCCN)C(=O)N[C@@H](Cc2c[nH]cn2)C(=O)N[C@@H](CCCCN)C(=O)N[C@@H](Cc2c[nH]c3ccccc23)C(=O)N1)C(N)=O [Cl6b] (H-ACKGIFVTCTPGKDECCPNHVCSSKHKWCKYKI-NH2; disulfide 2-17, 9-22, 16-29)
effect on the current traces of other Kv channels [1]: no obvious or only minimal effect

CC(C)C[C@H](NC(=O)[C@H](C)NC(=O)[C@@H](NC(=O)[C@H](CCCCN)NC(=O)[C@@H]1CSSC[C@@H]2NC(=O)[C@H](CCC(=O)O)NC(=O)[C@H](CC(N)=O)NC(=O)[C@H](CCCCN)NC(=O)CNC(=O)[C@@H]3CCCN3C(=O)[C@H]([C@@H](C)O)NC(=O)[C@@H]3CSSC[C@H](NC(=O)[C@H](C)NC(=O)[C@H](Cc4ccc(O)cc4)NC(=O)[C@H](CC(N)=O)NC(=O)[C@@H]4CCCN4C(=O)[C@H](CSSC[C@H](NC(=O)CN)C(=O)N[C@@H](CCCCN)C(=O)NCC(=O)N[C@@H](Cc4ccccc4)C(=O)NCC(=O)N[C@@H](CC(=O)O)C(=O)N[C@@H](CO)C(=O)N3)NC2=O)C(=O)N[C@@H](CO)C(=O)N[C@@H](CO)C(=O)N[C@@H](CCCCN)C(=O)N[C@@H](Cc2c[nH]cn2)C(=O)N[C@@H](CCCCN)C(=O)N[C@@H](Cc2c[nH]c3ccccc23)C(=O)N1)C(C)C)C(N)=O [Y32A] (H-GCKGFGDSCTPGKNECCPNYACSSKHKWCKVAL-NH2; disulfide 2-17, 9-22, 16-29)
IC50 (hNav1.7): 936 ± 123 nM | IC50 (rKv4.2): 1000 ± 177 nM

CC(C)C[C@H](NC(=O)[C@H](CC(=O)O)NC(=O)[C@H](Cc1ccc(O)cc1)NC(=O)[C@H](CCCCN)NC(=O)[C@@H]1CSSC[C@@H]2NC(=O)[C@H](CCC(N)=O)NC(=O)[C@H](CC(=O)O)NC(=O)[C@H](CC(N)=O)NC(=O)[C@H](CO)NC(=O)[C@@H]3CCCN3C(=O)[C@H](CC(N)=O)NC(=O)[C@@H]3CSSC[C@H](NC(=O)[C@H](C(C)C)NC(=O)[C@H](CC(C)C)NC(=O)[C@H](CO)NC(=O)[C@H](CO)NC(=O)[C@H](CO)NC(=O)[C@H](CCCCN)NC(=O)[C@H](CSSC[C@H](NC(=O)[C@H](C)N)C(=O)N[C@@H](CC(C)C)C(=O)NCC(=O)N[C@@H](Cc4ccccc4)C(=O)NCC(=O)N[C@@H](CCC(=O)O)C(=O)N[C@@H](CCCCN)C(=O)N3)NC2=O)C(=O)N[C@@H](CO)C(=O)N[C@@H](CCC(N)=O)C(=O)N[C@@H](CCCCN)C(=O)N[C@@H](Cc2c[nH]cn2)C(=O)N[C@@H](CCCCN)C(=O)N[C@@H](Cc2c[nH]c3ccccc23)C(=O)N1)C(N)=O [Ca2a]
Hill coefficients on rKv4.2 (rKv4.2; Hill fit of concentration-response curves, mean ± S.E.M., n = 4-8): 1.05 ± 0.17 | rKv4.2 voltage dependence of activation, V1/2 with toxin (rKv4.2): 42.0±2.1 mV | rKv4.2 voltage dependence of inactivation, V1/2 with toxin (rKv4.2): -54.3±1.4 mV | rKv4.3 voltage dependence of activation, V1/2 with toxin (rKv4.3; SEM): 59.0±3.0 mV | rKv4.3 voltage dependence of inactivation, V1/2 with toxin (rKv4.3; SEM): -48.1±2.0 mV | rKv4.3 voltage dependence of activation, κ with toxin (rKv4.3; [3]): 12.2±0.9 mV | rKv4.3 voltage dependence of inactivation, κ with toxin (rKv4.3; [3]): 4.5±0.2 mV | influence on the steady-state inactivation of rKv4.3 (rKv4.3; sub-saturation concentration): almost no influence

CC(C)C[C@H](NC(=O)[C@H](Cc1ccc(O)cc1)NC(=O)[C@@H](NC(=O)[C@H](CCCCN)NC(=O)[C@@H]1CSSC[C@@H]2NC(=O)[C@H](CCC(=O)O)NC(=O)[C@H](CC(N)=O)NC(=O)[C@H](CCCCN)NC(=O)CNC(=O)[C@@H]3CCCN3C(=O)[C@H]([C@@H](C)O)NC(=O)[C@@H]3CSSC[C@H](NC(=O)[C@H](C)NC(=O)[C@H](Cc4c[nH]c5ccccc45)NC(=O)[C@H](CC(N)=O)NC(=O)[C@@H]4CCCN4C(=O)[C@H](CSSC[C@H](NC(=O)CN)C(=O)N[C@@H](CCCCN)C(=O)NCC(=O)N[C@@H](Cc4ccccc4)C(=O)NCC(=O)N[C@@H](CC(=O)O)C(=O)N[C@@H](CO)C(=O)N3)NC2=O)C(=O)N[C@@H](CO)C(=O)N[C@@H](CO)C(=O)N[C@@H](CCCCN)C(=O)N[C@@H](Cc2c[nH]cn2)C(=O)N[C@@H](CCCCN)C(=O)N[C@@H](Cc2c[nH]c3ccccc23)C(=O)N1)C(C)C)C(N)=O [Y20W] (H-GCKGFGDSCTPGKNECCPNWACSSKHKWCKVYL-NH2; disulfide 2-17, 9-22, 16-29)
IC50 (hNav1.7): 495 ± 39 nM | IC50 (rKv4.2): 228 ± 33 nM

Nc1ccncc1 [4-AP, 4-aminopyridine]
effect on action potential duration (APD), 4-AP [2]: significantly prolonged
